Usually GI50 stands for the concentration that inhibits growth by half. The TGI is the concentration giving total growth inhibition.

Test systems include HL-60(TB) leukemia; UACC-62 melanoma; SF-539 CNS; MDA-MB-231 breast; SK-MEL-5 melanoma; EKVX NSCLC; RPMI-8226 leukemia; UO-31 renal; MALME-3M melanoma; MCF7 breast.
What all share (experiment): DTP human tumour cell line panel, 48 h

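Dose response: 5 concentrations. Exposure: 48 h. Format: 96-well plates. Endpoint: linear interpolation; highest concentration if not reached. Abbreviation: GI50, concentration required for 50% inhibition of growth. At the TGI there is no net growth.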

In the case of `COc1ccc2c(c1)C(=O)/C(=C/c1ccc(O)cc1)O2`, the GI50 was 1.35 µM in the experiment on HL-60(TB) leukemia; 14.7 µM in the experiment with UACC-62 melanoma; 21.6 µM in the experiment on SF-539 CNS; 14.2 µM with MDA-MB-231 breast; 15.4 µM with SK-MEL-5 melanoma; 18.6 µM in the experiment on EKVX NSCLC. The GI50 was 1.55 µM in the experiment with RPMI-8226 leukemia, 4.73 µM with UO-31 renal, 5.47 µM in the experiment on MALME-3M melanoma and 4.93 µM with MCF7 breast. Moreover, the TGI in the experiment on HL-60(TB) leukemia was 2.95 µM; with UACC-62 melanoma, 30.5 µM; in the experiment with SF-539 CNS it was 56.8 µM; with MDA-MB-231 breast it was 28.8 µM; in the experiment with SK-MEL-5 melanoma, 30.5 µM; with EKVX NSCLC, above 53.5 µM. Besides, the TGI stood at 3.49 µM in the experiment with RPMI-8226 leukemia, 9.39 µM in the experiment with UO-31 renal, 13.2 µM in the experiment with MALME-3M melanoma and 18.3 µM with MCF7 breast.
Turning to `O=C(N/N=C/c1ccc([N+](=O)[O-])cc1)c1ccccc1Nc1ccnc(C(F)(F)F)c1`, the GI50 in the experiment with HL-60(TB) leukemia was 14.2 µM; in the experiment with UACC-62 melanoma, 13.3 µM; in the experiment with SF-539 CNS, 30.3 µM; with MDA-MB-231 breast it was 21.7 µM; in the experiment with SK-MEL-5 melanoma, 19.1 µM; with EKVX NSCLC, 14.6 µM. The GI50 in the experiment on RPMI-8226 leukemia was 1.61 µM; in the experiment on UO-31 renal, 16.6 µM; in the experiment on MALME-3M melanoma it was 10.7 µM; in the experiment with MCF7 breast, 19.9 µM. The TGI with HL-60(TB) leukemia was 47.3 µM; with UACC-62 melanoma, 38.3 µM; with SF-539 CNS it was above 100 µM; with MDA-MB-231 breast, 77.1 µM; with SK-MEL-5 melanoma it was 42.3 µM; in the experiment on EKVX NSCLC, 59.5 µM. Further, the TGI turned out to be 14.5 µM with RPMI-8226 leukemia, 59.6 µM with UO-31 renal, 33.6 µM with MALME-3M melanoma and 45.6 µM in the experiment on MCF7 breast.
Take `O=c1oc2ccc(F)cc2c(=O)n1-c1ccc(I)cc1F`: the GI50 with HL-60(TB) leukemia is 0.366 µM; with UACC-62 melanoma it was 0.293 µM; in the experiment with SF-539 CNS, 0.42 µM; with MDA-MB-231 breast, 0.614 µM; in the experiment with SK-MEL-5 melanoma, 0.224 µM; in the experiment on EKVX NSCLC, 0.831 µM. Moreover, the GI50 with RPMI-8226 leukemia was 0.239 µM; in the experiment with UO-31 renal, 0.241 µM; in the experiment on MALME-3M melanoma it was 0.305 µM; in the experiment on MCF7 breast, 0.762 µM. Moreover, the TGI in the experiment with HL-60(TB) leukemia turned out to be 1.83 µM; with UACC-62 melanoma it was 1.1 µM; in the experiment on SF-539 CNS it was 5.17 µM; in the experiment with MDA-MB-231 breast, 3.61 µM; with SK-MEL-5 melanoma it was 0.521 µM; in the experiment with EKVX NSCLC, 7.27 µM. The total growth inhibition concentration (TGI) in the experiment with RPMI-8226 leukemia came to 0.745 µM; with UO-31 renal it was 1.46 µM; in the experiment on MALME-3M melanoma, 1.17 µM; with MCF7 breast it was 9.03 µM.
Turning to `NC(=O)c1ccc(I)c([N+](=O)[O-])c1`, the GI50 in the experiment on HL-60(TB) leukemia is 29.9 µM; with UACC-62 melanoma, 56.1 µM; in the experiment with SF-539 CNS, above 100 µM; in the experiment on MDA-MB-231 breast, 49.5 µM; in the experiment with SK-MEL-5 melanoma, above 100 µM; in the experiment with EKVX NSCLC, 27.1 µM. Moreover, the GI50 in the experiment with RPMI-8226 leukemia was 50.1 µM; in the experiment with UO-31 renal, above 100 µM; with MALME-3M melanoma, 41 µM; in the experiment on MCF7 breast, above 80.5 µM. Besides, the TGI is above 95.7 µM in the experiment with HL-60(TB) leukemia; above 100 µM in the experiment with UACC-62 melanoma; above 100 µM in the experiment with SF-539 CNS; above 100 µM in the experiment on MDA-MB-231 breast; above 100 µM in the experiment with SK-MEL-5 melanoma; above 65 µM in the experiment with EKVX NSCLC. Also, the TGI is above 100 µM in the experiment with RPMI-8226 leukemia, above 100 µM with UO-31 renal, above 72.9 µM with MALME-3M melanoma and above 100 µM with MCF7 breast.
With `COC(=O)[C@@H](C)C[C@H](Cc1ccc(F)cc1)NC(=O)c1csc([C@@H](C[C@H](C(C)C)N(C)C(=O)[C@@H](NC(=O)[C@H]2CCCCN2C)C2CC2)OC(C)=O)n1`, the GI50 is 0.054 µM in the experiment with HL-60(TB) leukemia; 0.137 µM in the experiment on UACC-62 melanoma; 0.408 µM in the experiment with SF-539 CNS; 0.315 µM with MDA-MB-231 breast; 0.0957 µM with SK-MEL-5 melanoma; 0.88 µM with EKVX NSCLC. Further, the GI50 in the experiment on RPMI-8226 leukemia is 0.104 µM; in the experiment on UO-31 renal, 1.91 µM; in the experiment with MALME-3M melanoma, 0.569 µM; in the experiment with MCF7 breast, 0.0587 µM. Further, the TGI is above 25 µM in the experiment on UACC-62 melanoma; 1.49 µM with SF-539 CNS; 1.65 µM in the experiment on MDA-MB-231 breast; 1.46 µM with SK-MEL-5 melanoma; above 25 µM in the experiment with EKVX NSCLC; above 25 µM in the experiment on RPMI-8226 leukemia. In addition, the TGI in the experiment with UO-31 renal, in the experiment on MALME-3M melanoma and with MCF7 breast was above 25 µM throughout.
As to `CC(C)(C)c1cc[n+](C[n+]2ccc(C(C)(C)C)cc2)cc1`, the TGI with HL-60(TB) leukemia, in the experiment on UACC-62 melanoma, in the experiment with SF-539 CNS, in the experiment on MDA-MB-231 breast, in the experiment with SK-MEL-5 melanoma and in the experiment on EKVX NSCLC was above 100 µM in each case. For the same compound, the TGI in the experiment with RPMI-8226 leukemia, in the experiment with UO-31 renal, in the experiment with MALME-3M melanoma and in the experiment with MCF7 breast was above 100 µM throughout.
With `CC1(C)N=C(N)N=C(N)N1c1cccc(CCCCc2ccc(Cl)c(S(=O)(=O)F)c2)c1`, the GI50 with HL-60(TB) leukemia was 0.563 µM; in the experiment on UACC-62 melanoma, 0.732 µM; in the experiment on SF-539 CNS it was 0.504 µM; in the experiment with MDA-MB-231 breast, 11 µM; in the experiment with SK-MEL-5 melanoma it was 0.612 µM; with EKVX NSCLC, 11.4 µM. Further, the GI50 in the experiment with RPMI-8226 leukemia was 4.97 µM; in the experiment on UO-31 renal, above 100 µM; in the experiment with MALME-3M melanoma it was 9.71 µM; in the experiment on MCF7 breast, 3.28 µM. Further, the TGI in the experiment with HL-60(TB) leukemia is 12.1 µM; in the experiment on UACC-62 melanoma, 17.2 µM; in the experiment with SF-539 CNS it was 13 µM; in the experiment on MDA-MB-231 breast it was 25.8 µM; in the experiment on SK-MEL-5 melanoma, 12.9 µM; in the experiment with EKVX NSCLC it was 39.8 µM. The TGI in the experiment with RPMI-8226 leukemia was 25.1 µM; in the experiment with UO-31 renal, above 100 µM; in the experiment with MALME-3M melanoma, 28.3 µM; in the experiment on MCF7 breast it was 17.7 µM.
For the compound `O=C1CC=C2C3CC4N(CCC45c4ccccc4N1C25)C/C3=C\CO` (centres undefined), the TGI with HL-60(TB) leukemia, in the experiment on UACC-62 melanoma, in the experiment with SF-539 CNS, with MDA-MB-231 breast, in the experiment with SK-MEL-5 melanoma and with EKVX NSCLC was above 100 µM throughout. Also, the TGI with RPMI-8226 leukemia, in the experiment with UO-31 renal, with MALME-3M melanoma and with MCF7 breast was above 100 µM each time.

For the origin of these results see PubChem BioAssay (NCI).
